Test [1] has as its target T1, human GLP-1 receptor (Homo sapiens, UniProt P43220).
T1 construct: expressed in transfected cells; host or cells: membranes prepared from BHK cells (parent line BHKTS13), clone FCW467-12A
In words: In vitro potency, CRE luciferase reporter gene assay in BHK cells expressing the human GLP-1 receptor. The class given is cell-based. The following applies: whole cell reporter gene assay, 3 h incubation, no HSA, averages of at least two replicates. How it is done: The purpose of this example is to test the activity, or potency, of the GLP-1 derivatives in vitro. The in vitro potency is the measure of human GLP-1 receptor activation in a whole cell assay.
Semaglutide was included for comparison.
In vitro potency was determined by measuring the response of the human GLP-1 receptor in a reporter gene assay. The assay was performed in a stably transfected BHK cell line that expresses the human GLP-1 receptor and contains the DNA for the cAMP response element (CRE) coupled to a promoter and the gene for firefly luciferase (CRE luciferase). When the human GLP-1 receptor is activated it results in the production of cAMP, which in turn results in the luciferase protein being expressed. When assay incubation is completed the luciferase substrate (luciferin) is added and the enzyme converts luciferin to oxyluciferin to produce bioluminescence. The luminescence is measured as the readout for the assay.
The cells used in this assay (clone FCW467-12A/KZ10-1) were BHK cells with BHKTS13 as a parent cell line. The cells were derived from a clone (FCW467-12A) that expresses the human GLP-1 receptor and were established by further transfection with CRE luciferase to obtain the current clone.
The cells were cultured at 5% CO2 in Cell Culture Medium. They were aliquoted and stored in liquid nitrogen. Before each assay an aliquot is taken up and washed twice in PBS before being suspended at the desired concentration in the assay specific buffer. For 96-well plates the suspension was made to give a final concentration of 5×10^3 cells/well.
The following chemicals were used in the assay: Pluronic F-68 (10%) (Gibco 2404), human serum albumin (HSA) (Sigma A9511), ovalbumin (Sigma A5503), DMEM w/o phenol red (Gibco 11880-028), 1 M Hepes (Gibco 15630), Glutamax 100× (Gibco 35050) and steadylite plus (PerkinElmer 6016757).
Cell Culture Medium consisted of DMEM medium with 10% FBS (Fetal Bovine Serum; Invitrogen 16140-071), 1 mg/ml G418 (Invitrogen 15140-122), 240 nM MTX (methotrexate; Sigma M9929) and 1% pen/strep (penicillin/streptomycin; Invitrogen 15140-122).
Assay Medium consisted of DMEM w/o phenol red, 10 mM Hepes and 1× Glutamax. The Assay Buffer consisted of 2% ovalbumin and 0.2% Pluronic F-68 in Assay Medium.
1) Cell stocks were thawed in a 37° C. water bath.
2) Cells were washed three times in PBS.
3) The cells were counted and adjusted to 5×10^3 cells/50 μl (1×10^5 cells/ml) in Assay Medium. A 50 μl aliquot of cells was transferred to each well in the assay plate.
4) Stocks of the test compounds and reference compounds were diluted to a concentration of 0.2 μM in Assay Buffer. Compounds were diluted 10-fold to give the following concentrations: 2×10^−7 M, […]; 2×10^−9 M, 2×10^−10 M, 2×10^−11 M, 2×10^−12 M, 2×10^−13 M, and 2×10^−14 M. 5) A 50 μl aliquot of compound or blank was transferred from the dilution plate to the assay plate. Compounds were tested at the following final concentrations: 1×10^−7 M, 1×10^−8 M; 1×10^−9 M, 1×10^−10 M, 1×10^−11 M, 1×10^−12 M, 1×10^−13 M, and 1×10^−14 M. 6) The assay plate was incubated for 3 h in a 5% CO2 incubator at 37° C. 7) The assay plate was removed from the incubator and allowed to stand at room temperature for 15 min. 8) A 100 μl aliquot of steadylite plus reagent was added to each well of the assay plate (reagent was light sensitive). 9) Each assay plate was covered with aluminum foil to protect it from light and shaken for 30 min at room temperature. 10) Each assay plate was read in a Packard TopCount NXT instrument. Calculations and Results
The data from the TopCount instrument were transferred to GraphPad Prism software. The software performs a non-linear regression (log(agonist) vs response).
A minimum of two replicates was measured for each sample. The reported values are averages of the replicates.
On the technique in general: A reporter such as luciferase makes a cellular process visible.

The target of test [2] is T1, human GLP-1 receptor. In words: GLP-1 receptor binding, competitive binding assay (125I-GLP-1, SPA) on isolated membranes.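 Further: test compounds added at a range of concentrations to membranes from cells expressing the human GLP-1 receptor, scored by displacement of labelled ligand, read with WGA SPA beads.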
Where [3] appears, read: high serum albumin (2.0% HSA final assay concentration), read-out: High HSA IC50.
Where [4] appears, read: low serum albumin (max. 0.001% final assay concentration), read-out: Low HSA IC50.

EC50 and IC50 data for two compounds are collected here from patent US10010614B2, “Derivatives of GLP-1 like peptides, and uses thereof” (Novo Nordisk A/S, priority 2013, dated 2018).

Where two headings read alike, the source gives them in different places. Numbered stars: 1 amine (or outer) side, 2 acyl side, 3 side chain; on linkers, the order of the positions; unused ones are H or OH. Square brackets hold non-standard residues; d marks the D form. Side chains are listed from the residue outwards. Peptide text beside a SMILES is read from it. * marks the point of attachment. X3 = O=C(O)CCCCCCCCCCCCCCCCCCC(=O)N[C@@H](CCC(=O)NCCCOCCOCCOCCCNC(=O)COCC(=O)*)C(=O)O; C20 diacid = O=C(O)CCCCCCCCCCCCCCCCCCC(=O)*; εLys = N[C@@H](CCCCN[*:1])C(=O)[*:2]; AEEA = NCCOCCOCC(=O)O; Aib = CC(C)(N)C(=O)O

T1 sequence (P43220 24-463): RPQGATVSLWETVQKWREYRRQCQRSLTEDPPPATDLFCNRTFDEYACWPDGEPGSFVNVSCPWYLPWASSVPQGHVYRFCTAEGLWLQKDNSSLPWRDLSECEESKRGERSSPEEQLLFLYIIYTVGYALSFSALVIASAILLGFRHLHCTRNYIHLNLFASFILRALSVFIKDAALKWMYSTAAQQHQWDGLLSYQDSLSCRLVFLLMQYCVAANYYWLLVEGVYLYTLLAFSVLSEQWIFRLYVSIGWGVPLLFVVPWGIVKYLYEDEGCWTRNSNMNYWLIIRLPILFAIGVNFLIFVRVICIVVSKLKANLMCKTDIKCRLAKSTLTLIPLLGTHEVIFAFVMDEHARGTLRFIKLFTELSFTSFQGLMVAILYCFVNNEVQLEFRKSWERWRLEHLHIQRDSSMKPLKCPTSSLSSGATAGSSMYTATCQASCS

As a reminder, the EC50 is the concentration at which the effect is half-maximal. By IC50 is commonly meant the concentration needed to halve the response being measured. `CC[C@H](C)[C@H](NC(=O)[C@H](Cc1ccccc1)NC(=O)[C@H](CCC(=O)O)NC(=O)[C@H](CCCNC(=N)N)NC(=O)[C@H](C)NC(=O)[C@H](C)NC(=O)[C@H](CCC(N)=O)NC(=O)[C@H](CCC(=O)O)NC(=O)[C@H](CCC(=O)O)NC(=O)[C@H](CC(C)C)NC(=O)[C@H](Cc1ccc(O)cc1)NC(=O)[C@H](CO)NC(=O)[C@H](CO)NC(=O)[C@@H](NC(=O)[C@H](CC(=O)O)NC(=O)[C@H](CO)NC(=O)[C@@H](NC(=O)[C@H](Cc1ccccc1)NC(=O)[C@@H](NC(=O)CNC(=O)[C@H](CCC(=O)O)NC(=O)C(C)(C)NC(=O)[C@@H](N)Cc1c[nH]cn1)[C@@H](C)O)[C@@H](C)O)C(C)C)C(=O)N[C@@H](C)C(=O)N[C@@H](Cc1c[nH]c2ccccc12)C(=O)N[C@@H](CC(C)C)C(=O)N[C@H](C(=O)N[C@@H](CCCNC(=N)N)C(=O)NCC(=O)N[C@@H](CCCNC(=N)N)C(=O)NCC(=O)N[C@@H](CCCCNC(=O)COCCOCCNC(=O)COCCOCCNC(=O)COCCOCCNC(=O)COCCOCCNC(=O)[C@@H](N)CCCCNC(=O)[C@@H](N)CCCCNC(=O)CCCCCCCCCCCCCCCCCCC(=O)O)C(=O)NCC(=O)NCC(=O)N[C@@H](CO)C(=O)N[C@@H](CCCCNC(=O)COCCOCCNC(=O)COCCOCCNC(=O)COCCOCCNC(=O)COCCOCCNC(=O)[C@@H](N)CCCCNC(=O)[C@@H](N)CCCCNC(=O)CCCCCCCCCCCCCCCCCCC(=O)O)C(=O)O)C(C)C` [Example 25] (H-H[Aib]EGTFTSDVSSYLEEQAAREFIAWLVRGRGK([AEEA-AEEA-AEEA-AEEA-εLys-εLys-C20 diacid])GGSK([AEEA-AEEA-AEEA-AEEA-εLys-εLys-C20 diacid])-OH; N-terminus and C-terminus assumed) showed an EC50 in test [1] of 0.01 nM. In addition, the IC50 turned out to be 38 nM in test [2] (setting [3]) and 0.22 nM in test [2] (setting [4]).
In test [1], `CC[C@H](C)[C@H](NC(=O)[C@H](Cc1ccccc1)NC(=O)[C@H](CCC(=O)O)NC(=O)[C@H](CCCNC(=N)N)NC(=O)[C@H](C)NC(=O)[C@H](C)NC(=O)[C@H](CCC(N)=O)NC(=O)[C@H](CCC(=O)O)NC(=O)[C@H](CCC(=O)O)NC(=O)[C@H](CC(C)C)NC(=O)[C@H](Cc1ccc(O)cc1)NC(=O)[C@H](CO)NC(=O)[C@H](CO)NC(=O)[C@@H](NC(=O)[C@H](CC(=O)O)NC(=O)[C@H](CO)NC(=O)[C@@H](NC(=O)[C@H](Cc1ccccc1)NC(=O)[C@@H](NC(=O)CNC(=O)[C@H](CCC(=O)O)NC(=O)C(C)(C)NC(=O)[C@@H](N)Cc1c[nH]cn1)[C@@H](C)O)[C@@H](C)O)C(C)C)C(=O)N[C@@H](C)C(=O)N[C@@H](Cc1c[nH]c2ccccc12)C(=O)N[C@@H](CC(C)C)C(=O)N[C@H](C(=O)N[C@@H](CCCNC(=N)N)C(=O)NCC(=O)N[C@@H](CCCNC(=N)N)C(=O)NCC(=O)N[C@@H](CCCCNC(=O)COCC(=O)NCCCOCCOCCOCCCNC(=O)CC[C@H](NC(=O)CCCCCCCCCCCCCCCCCCC(=O)O)C(=O)O)C(=O)NCC(=O)NCC(=O)N[C@@H](CO)C(=O)N[C@@H](CCCCNC(=O)COCC(=O)NCCCOCCOCCOCCCNC(=O)CC[C@H](NC(=O)CCCCCCCCCCCCCCCCCCC(=O)O)C(=O)O)C(=O)O)C(C)C` [Example 22, N{Alpha}([Aib8,Glu22,Arg26,Arg34]-GLP-1-(7-37)-peptidyl)-N{Epsilon}[2-[2-[3-[2-[2-[3-[[(4S)-4-carboxy-4-(19-carboxynonadecanoylamino)butanoyl]amino]propoxy]ethoxy]ethoxy]propylamino]-2-oxoethoxy]acetyl]Lys-Gly-Gly-Ser-N{Epsilon}[2-[2-[3-[2-[2-[3-[[(4S)-4-carboxy-4-(19-carboxynonadecanoylamino)butanoyl]amino]propoxy]ethoxy]ethoxy]propylamino]-2-oxoethoxy]acetyl]Lys] (H-H[Aib]EGTFTSDVSSYLEEQAAREFIAWLVRGRGK(X3)GGSK(X3)-OH; N-terminus and C-terminus assumed) had an EC50 of 0.01 nM. Further, the results for the IC50 in test [2] (setting [3]) and in test [2] (setting [4]) were 194 nM and 0.82 nM, respectively.
